Laboratory results published in PubChem BioAssay AID256 (DTP/NCI, 2004).
“And” between values parts separate entries of the source, which are not always exact repeats. Equal values may be shown once. Toxic doses and inconclusive results are not listed. The calls were made as follows: active = survival T/C of 150% or more; inactive = T/C below 125% in these data.

Test system: CD2F1 mice, L1210 leukemia ip, survival T/C
Test: NCI In Vivo Anticancer Drug Screen. Data for tumor model L1210 Leukemia (intraperitoneal) in CD2F1 (CDF1) mice
Conditions: higher = longer survival
In short: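 In this screen, transplantable tumors were grown in mice given either the compound or its vehicle. Results were expressed as the treated measurement relative to the control measurement.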

Measured: T/C

O=c1n(CC2CO2)c(=O)n(CC2CO2)c(=O)n1CC1CO1 (stereo not drawn)
active: endpoint: mean survival time, dose: 12.5 mg/kg/injection, schedule: Q01DX009 (ip), vehicle: saline with Tween-80 166 % of control and 157 % of control | endpoint: mean survival time, dose: 12.5 mg/kg/injection, schedule: Q01DX009 (ip), vehicle: suspension in saline 162 % of control | endpoint: mean survival time, dose: 20.0 mg/kg/injection, schedule: Q01DX009 (ip), vehicle: saline 178 % of control | endpoint: mean survival time, dose: 25.0 mg/kg/injection, schedule: Q01DX009 (ip), vehicle: saline with Tween-80 291 % of control | endpoint: mean survival time, dose: 25.0 mg/kg/injection, schedule: Q01DX009 (ip), vehicle: saline 151 % of control and 177 % of control and 158 % of control | endpoint: mean survival time, dose: 25.0 mg/kg/injection, schedule: Q01DX009 (ip), vehicle: suspension in saline 276 % of control and 152 % of control | endpoint: mean survival time, dose: 25.0 mg/kg/injection, schedule: Q04DX003 (ip), vehicle: saline 182 % of control | endpoint: mean survival time, dose: 25.0 mg/kg/injection, schedule: Q04DX005 (ip), vehicle: saline 165 % of control | endpoint: mean survival time, dose: 30.0 mg/kg/injection, schedule: Q01DX009 (ip), vehicle: saline 164 % of control | endpoint: mean survival time, dose: 30.0 mg/kg/injection, schedule: Q01DX010 (ip), vehicle: saline 166 % of control | endpoint: mean survival time, dose: 40.0 mg/kg/injection, schedule: Q01DX010 (ip), vehicle: saline 195 % of control | endpoint: mean survival time, dose: 50.0 mg/kg/injection, schedule: Q01DX001 (ip), vehicle: saline 160 % of control and 205 % of control | endpoint: mean survival time, dose: 50.0 mg/kg/injection, schedule: Q01DX009 (ip), vehicle: saline with Tween-80 170 % of control | endpoint: mean survival time, dose: 50.0 mg/kg/injection, schedule: Q01DX009 (ip), vehicle: saline 151 % of control | endpoint: mean survival time, dose: 50.0 mg/kg/injection, schedule: Q01DX010 (ip), vehicle: saline 219 % of control | endpoint: mean survival time, dose: 50.0 mg/kg/injection, schedule: Q04DX003 (ip), vehicle: saline 187 % of control | endpoint: mean survival time, dose: 50.0 mg/kg/injection, schedule: Q04DX005 (ip), vehicle: saline 259 % of control and 340 % of control | endpoint: mean survival time, dose: 60.0 mg/kg/injection, schedule: Q01DX001 (ip), vehicle: saline 168 % of control and 202 % of control | endpoint: mean survival time, dose: 60.0 mg/kg/injection, schedule: Q01DX009 (ip), vehicle: saline 467 % of control | endpoint: mean survival time, dose: 70.0 mg/kg/injection, schedule: Q01DX001 (ip), vehicle: saline 291 % of control | endpoint: mean survival time, dose: 75.0 mg/kg/injection, schedule: Q04DX003 (ip), vehicle: saline 154 % of control | endpoint: mean survival time, dose: 75.0 mg/kg/injection, schedule: Q04DX005 (ip), vehicle: saline 208 % of control and 581 % of control | endpoint: mean survival time, dose: 80.0 mg/kg/injection, schedule: Q01DX001 (ip), vehicle: saline 202 % of control and 351 % of control | endpoint: median survival time, dose: 5.0 mg/kg/injection, schedule: Q03HX024 (ip), vehicle: saline 167 % of control | endpoint: median survival time, dose: 10.0 mg/kg/injection, schedule: Q03HX008 (ip), vehicle: saline 167 % of control | endpoint: median survival time, dose: 10.0 mg/kg/injection, schedule: Q03HX016 (ip), vehicle: saline 176 % of control | endpoint: median survival time, dose: 10.0 mg/kg/injection, schedule: Q03HX024 (ip), vehicle: saline 212 % of control | endpoint: median survival time, dose: 12.5 mg/kg/injection, schedule: Q01DX005 (ip), vehicle: saline 150 % of control | endpoint: median survival time, dose: 20.0 mg/kg/injection, schedule: Q01DX009 (ip), vehicle: saline 175 % of control | endpoint: median survival time, dose: 20.0 mg/kg/injection, schedule: Q03HX008 (ip), vehicle: saline 637 % of control | endpoint: median survival time, dose: 20.0 mg/kg/injection, schedule: Q03HX016 (ip), vehicle: saline 172 % of control | endpoint: median survival time, dose: 25.0 mg/kg/injection, schedule: Q01DX005 (ip), vehicle: saline 380 % of control | endpoint: median survival time, dose: 25.0 mg/kg/injection, schedule: Q04DX003 (ip), vehicle: saline 167 % of control | endpoint: median survival time, dose: 40.0 mg/kg/injection, schedule: Q01DX005 (ip), vehicle: saline 216 % of control | endpoint: median survival time, dose: 40.0 mg/kg/injection, schedule: Q01DX009 (ip), vehicle: saline 253 % of control and 750 % of control | endpoint: median survival time, dose: 40.0 mg/kg/injection, schedule: Q03HX016 (ip), vehicle: saline 160 % of control | endpoint: median survival time, dose: 50.0 mg/kg/injection, schedule: Q01DX001 (ip), vehicle: saline 160 % of control and 166 % of control | endpoint: median survival time, dose: 50.0 mg/kg/injection, schedule: Q01DX005 (ip), vehicle: saline 750 % of control | endpoint: median survival time, dose: 50.0 mg/kg/injection, schedule: Q01DX009 (ip), vehicle: saline 750 % of control | endpoint: median survival time, dose: 50.0 mg/kg/injection, schedule: Q04DX003 (ip), vehicle: saline 253 % of control | endpoint: median survival time, dose: 50.0 mg/kg/injection, schedule: Q08DX002 (ip), vehicle: saline 187 % of control | endpoint: median survival time, dose: 60.0 mg/kg/injection, schedule: Q01DX005 (ip), vehicle: saline 275 % of control | endpoint: median survival time, dose: 60.0 mg/kg/injection, schedule: Q01DX009 (ip), vehicle: saline 178 % of control | endpoint: median survival time, dose: 200.0 mg/kg/injection, schedule: Q01DX009 (oral), vehicle: saline 151 % of control | endpoint: median survival time, dose: 200.0 mg/kg/injection, schedule: Q04DX003 (oral), vehicle: saline 191 % of control | endpoint: median survival time, dose: 200.0 mg/kg/injection, schedule: Q08DX002 (oral), vehicle: saline 163 % of control | endpoint: median survival time, dose: 250.0 mg/kg/injection, schedule: Q01DX009 (oral), vehicle: saline 151 % of control | endpoint: median survival time, dose: 250.0 mg/kg/injection, schedule: Q08DX002 (ip), vehicle: saline 160 % of control | endpoint: median survival time, dose: 300.0 mg/kg/injection, schedule: Q08DX002 (oral), vehicle: saline 185 % of control | endpoint: median survival time, dose: 350.0 mg/kg/injection, schedule: Q01DX001 (ip), vehicle: saline 151 % of control | endpoint: median survival time, dose: 450.0 mg/kg/injection, schedule: Q01DX001 (ip), vehicle: saline 160 % of control
221 % of control and 122 % of control: endpoint: median survival time, dose: 300.0 mg/kg/injection, schedule: Q04DX003 (oral), vehicle: saline
300 % of control and 109 % of control: endpoint: mean survival time, dose: 40.0 mg/kg/injection, schedule: Q01DX009 (ip), vehicle: saline
inactive: endpoint: mean survival time, dose: 50.0 mg/kg/injection, schedule: Q01DX009 (ip), vehicle: suspension in saline 94 % of control | endpoint: mean survival time, dose: 75.0 mg/kg/injection, schedule: Q01DX009 (ip), vehicle: saline 91 % of control | endpoint: mean survival time, dose: 80.0 mg/kg/injection, schedule: Q01DX009 (ip), vehicle: saline 104 % of control | endpoint: median survival time, dose: 12.5 mg/kg/injection, schedule: Q01DX001 (ip), vehicle: saline 121 % of control | endpoint: median survival time, dose: 12.5 mg/kg/injection, schedule: Q01DX001 (iv), vehicle: saline 101 % of control | endpoint: median survival time, dose: 12.5 mg/kg/injection, schedule: Q01DX005 (iv), vehicle: saline 113 % of control | endpoint: median survival time, dose: 12.5 mg/kg/injection, schedule: Q01DX009 (oral), vehicle: saline 105 % of control | endpoint: median survival time, dose: 20.0 mg/kg/injection, schedule: Q03HX024 (ip), vehicle: saline 116 % of control | endpoint: median survival time, dose: 25.0 mg/kg/injection, schedule: Q01DX001 (iv), vehicle: saline 107 % of control | endpoint: median survival time, dose: 25.0 mg/kg/injection, schedule: Q01DX009 (oral), vehicle: saline 110 % of control | endpoint: median survival time, dose: 50.0 mg/kg/injection, schedule: Q04DX003 (oral), vehicle: saline 116 % of control | endpoint: median survival time, dose: 70.0 mg/kg/injection, schedule: Q01DX005 (ip), vehicle: saline 110 % of control | endpoint: median survival time, dose: 100.0 mg/kg/injection, schedule: Q01DX001 (iv), vehicle: saline 100 % of control | endpoint: median survival time, dose: 100.0 mg/kg/injection, schedule: Q01DX001 (oral), vehicle: saline 123 % of control | endpoint: median survival time, dose: 100.0 mg/kg/injection, schedule: Q08DX002 (ip), vehicle: saline 122 % of control | endpoint: median survival time, dose: 150.0 mg/kg/injection, schedule: Q01DX005 (oral), vehicle: saline 116 % of control | endpoint: median survival time, dose: 350.0 mg/kg/injection, schedule: Q04DX003 (oral), vehicle: saline 122 % of control | endpoint: median survival time, dose: 350.0 mg/kg/injection, schedule: Q08DX002 (oral), vehicle: saline 119 % of control | endpoint: median survival time, dose: 400.0 mg/kg/injection, schedule: Q04DX003 (oral), vehicle: saline 120 % of control | endpoint: median survival time, dose: 450.0 mg/kg/injection, schedule: Q04DX003 (oral), vehicle: saline 118 % of control | endpoint: median survival time, dose: 450.0 mg/kg/injection, schedule: Q08DX002 (oral), vehicle: saline 118 % of control | endpoint: median survival time, dose: 500.0 mg/kg/injection, schedule: Q08DX002 (oral), vehicle: saline 123 % of control
206 % of control and 123 % of control: endpoint: mean survival time, dose: 6.25 mg/kg/injection, schedule: Q01DX009 (ip), vehicle: suspension in saline

CN1C(=O)C2(Cc3cn(C45CC67SSC(CO)(C(=O)N6C4Nc4ccccc45)N(C)C7=O)c4ccccc34)SSC1(CO)C(=O)N2C (stereo not drawn)
inactive: endpoint: mean survival time, dose: 0.31 mg/kg/injection, schedule: Q01DX009 (ip), vehicle: Klucel (hydroxypropylcellulose) (HPC) 93 % of control | endpoint: mean survival time, dose: 0.62 mg/kg/injection, schedule: Q01DX009 (ip), vehicle: Klucel (hydroxypropylcellulose) (HPC) 100 % of control | endpoint: mean survival time, dose: 1.25 mg/kg/injection, schedule: Q01DX009 (ip), vehicle: Klucel (hydroxypropylcellulose) (HPC) 100 % of control

COC1C2CCC1N(C)CC2 (stereo not drawn)
inactive: endpoint: mean survival time, dose: 37.5 mg/kg/injection, schedule: Q04DX002 (ip), vehicle: saline with Tween-80 106 % of control | endpoint: mean survival time, dose: 75.0 mg/kg/injection, schedule: Q04DX002 (ip), vehicle: saline with Tween-80 98 % of control | endpoint: mean survival time, dose: 150.0 mg/kg/injection, schedule: Q04DX002 (ip), vehicle: saline with Tween-80 117 % of control | endpoint: mean survival time, dose: 300.0 mg/kg/injection, schedule: Q04DX002 (ip), vehicle: saline with Tween-80 95 % of control
